Measured values from patent US9428513B2, “Triazolopyrazine” (Boehringer Ingelheim International GmbH, priority 2013, dated 2016).

Each compound was assayed against BRD4-BD1 (Homo sapiens (Human), UniProt O60885) (assay: BRD4-H4 Tetraacetylated Peptide Inhibition AlphaScreen). Details: GST-BRD4-BD1 (aa 44-168) / biotinylated Acetyl-Histone H4 (Lys5, 8, 12, 16) peptide.
Format: biochemical
Experimental: Biological Methods BRD4-H4 Tetraacetylated Peptide Inhibition AlphaScreen
Compounds are diluted in serial dilution 1:5 in assay buffer from 10 mM stock in DMSO (100 μM start concentration) in white OptiPlate-384 (PerkinElmer). A mix consisting of 15 nM GST-BRD4-BD1 protein (aa 44-168) or 150 nM GST-BRD4-BD2 (aa 333-460) and 15 nM biotinylated Acetyl-Histone H4 (Lys5, 8, 12, 16) peptide is prepared in assay buffer (50 mM HEPES pH=7.4; 25 mM NaCl; 0.05% Tween 20; 0.1% bovine serum albumin (BSA); 10 mM dithiothreitol (DTT)). 6 μl of the mix is added to the compound dilutions. Subsequently, 6 μl of premixed AlphaLISA Glutathione Acceptor Beads and AlphaScreen Streptavidin Donor Beads from PerkinElmer (in assay buffer at a concentration of 10 μg/ml each) are added and the samples are incubated for 30 min at RT in the dark (shaking 300 rpm). Afterwards, the signal is measured in a PerkinElmer Envision HTS Multilabel Reader using the AlphaScreen protocol from PerkinElmer.
Each plate contains negative controls where biotinylated Acetyl-Histone H4 peptide and GST-BRD4-BD1 or GST-BRD4-BD2 are left out and replaced by assay buffer. Negative control values are entered as low basis value when using the software GraphPad Prism for calculations. Furthermore, a positive control (probe molecule JQ1+ with protein/peptide mix) is pipetted. Determination of IC50 values are carried out using GraphPad Prism 3.03 software (or updates thereof).

| IC50 [nM] | Structure (SMILES) |
| --- | --- |
| 63 | COC[C@H](C)n1c(-c2cn3c(C)nnc3c(NC(C)C)n2)nc2ccc(C3CN(C)CCO3)cc21 (stereo partly shown) [I-24] |
| 49 | COCCn1c(-c2cn3c(C)nnc3c(NC(C)C)n2)nc2nc(N3CCOCC3)ccc21 [I-29] |
| 123 | COC[C@H](C)n1c(-c2cn3c(C)nnc3c(N)n2)nc2cnc(N3CCOCC3)cc21 [I-26] |
| 69 | COC[C@H](C)n1c(-c2cn3c(C)nnc3c(NC(C)C)n2)nc2ccc(N3CCOCC3)nc21 [I-28] |
| 122 | Cc1nnc2c(NC3CCN(S(C)(=O)=O)CC3)nc(-c3nc4cnc(N5CCOCC5)cc4n3CCOC(C)C)cn12 [I-23] |
| 35 | Cc1nnc2c(NC3CCN(C)CC3)nc(-c3nc4cnc(N5CCOCC5)cc4n3CCOC(C)C)cn12 [I-22] |
| 9 | Cc1nnc2c(NC(C)C)nc(-c3nc4cnc(N5CCOC[C@@H]5C)cc4n3C(C)CC3CC3)cn12 (stereo partly shown) [I-25] |
| 26 | Cc1nnc2c(NC(C)C)nc(-c3nc4cnc(N5CCOC[C@@H]5C)cc4n3C(C)CC(F)(F)F)cn12 (stereo partly shown) [I-27] |
| 17 | COC[C@H](C)n1c(-c2cn3c(C)nnc3c(NC(C)C)n2)nc2cc3c(cc21)N(C(C)C)S(=O)(=O)C3(C)C [I-21] |

Continued, compound first:

| Structure (SMILES) | IC50 [nM] |
| --- | --- |
| COC[C@H](C)n1c(-c2cn3c(C)nnc3c(NC(C)C)n2)nc2cnc(N3CCOC[C@@H]3C)cc21 [I-12] | 51 |
| CNc1nc(-c2nc3cnc(N4CCOCC4)cc3n2CC2CCCO2)cn2c(C)nnc12 (stereo not shown) [I-9] | 65 |
| Cc1nnc2c(NC(C)C)nc(-c3nc4cnc(N5CCOCC5)cc4n3C[C@@H]3CCCO3)cn12 [I-8] | 55 |
| COC[C@H](C)n1c(-c2cn3c(C)nnc3c(NC(C)C)n2)nc2ccc(N3CCOC[C@@H]3C)cc21 [I-19] | 58 |
| COC[C@H](C)n1c(-c2cn3c(C)nnc3c(NC(C)C)n2)nc2ccc(C(C)C)cc21 [I-15] | 123 |
| COC[C@H](C)n1c(-c2cn3c(C)nnc3c(NC(C)C)n2)nc2cnc(N)cc21 [I-18] | 69 |
| CNc1nc(-c2nc3cnc(N4CCOCC4)cc3n2[C@@H](C)COC)cn2c(C)nnc12 [I-6] | 51 |
| Cc1nnc2c(NC(C)C)nc(-c3nc4cnc(N5CCOCC5)cc4n3CCOC(C)C)cn12 [I-4] | 43 |
| COC[C@H](C)n1c(-c2cn3c(C)nnc3c(NC(C)C)n2)nc2cnc(N3CCOCC3)cc21 [I-3] | 33 |
| CNc1nc(-c2nc3cnc(N4CCOCC4)cc3n2[C@H](C)COC)cn2c(C)nnc12 [I-11] | 549 |
| COC[C@H](C)n1c(-c2cn3c(C)nnc3c(NC(C)C)n2)nc2ccc(C3CCOCC3)cc21 [I-14] | 49 |
| CNc1nc(-c2nc3cnc(N4CCOC[C@@H]4C)cc3n2[C@@H](C)COC)cn2c(C)nnc12 [I-13] | 27 |
| Cc1nnc2c(NC(C)C)nc(-c3nc4cnc(N5CCOCC5)cc4n3C[C@H]3CCCO3)cn12 [I-10] | 54 |
| COC[C@@H](C)n1c(-c2cn3c(C)nnc3c(NC(C)C)n2)nc2cnc(N3CCOCC3)cc21 [I-2] | 333 |
| COC[C@H](C)n1c(-c2cn3c(C)nnc3c(NC(C)C)n2)nc2ccc(N)cc21 [I-20] | 157 |
| CNc1nc(-c2nc3cnc(N4CCOCC4)cc3n2C[C@@H]2CCCO2)cn2c(C)nnc12 [I-7] | 55 |
| COC[C@H](C)n1c(-c2cn3c(C)nnc3c(NC(C)C)n2)nc2cc3c(cc21)N(C)C(=O)C3(C)C [I-16] | 22 |
| COCCn1c(-c2cn3c(C)nnc3c(NC(C)C)n2)nc2cnc(N3CCOCC3)cc21 [I-1, 6-[1-(2-methoxyethyl)-6-(morpholin-4-yl)-1H-imidazo[4,5-c]pyridin-2-yl]-3-methyl-N-(propan-2-yl)-[1,2,4]triazolo[4,3-a]pyrazin-8-amine] | 32 |
| CCOCCn1c(-c2cn3c(C)nnc3c(NC(C)C)n2)nc2cnc(N3CCOCC3)cc21 [I-5] | 33 |
